Test results as given in US20090176701A1, “Anti-microbial agents that interact with the complement system” (priority 2005, published 2009).

Assays:
Assay type in all cases: cell-based
E. coli O18:K1:H7 [1] = assay: Bacterial killing assay in 10% blood; set-up: CFU / CFU (Range) / CFU 1 hour / CFU 3 hours / CFU 5 hours / CFU 3 hour: scale not given here; details: for CFU 1 hour / CFU 3 hours: Table 5, 3000 CFU; for CFU 1 hour: blood 3.4; for CFU 3 hours: blood 4.2; for CFU 5 hours / CFU 3 hour: Table 6; for CFU (Range): Table 9
Experimental: TFPI was incubated with α-thrombin, plasmin, elastase and cathepsin G in 10% blood and tested for bacterial killing activity against E. coli O18:K1:H7 as follows. Recombinant TFPI at 5 μM (unless indicated otherwise), was treated with plasmin (100 nM, lane 3) and α-thrombin (100 nM, lane 7; 1 μM, lane 8) (A), elastase (100 nM, lanes 3 and 4) (B), and cathepsin G (100 nM, lane 4; 1 μM, lanes 5, 6 and 7) (C) in a total volume of 180 μl. The reaction contained TFPI diluted in RPMI 1640 without phenol red, 25 mM Hepes, pH 7.5 (RPMI), 3000 CFU E. coli O18:K1:H7 in 40 μl PBS, and diluted enzyme in 20 μl RPMI. The volume was adjusted with RPMI. The samples were pre-incubated for 15-30 minutes before the addition of anti-coagulant-free fresh blood to a final volume of 200 μl. Controls were 10% blood in RPMI, TFPI at 1, 2 and 5 μM, and the enzymes alone at the respective concentrations. The samples were incubated for 4 hours at 37° C. with 5% CO2 in a humidified incubator and serial dilutions plated on Tryptase soy agar plates. The number of bacterial colonies was determined after overnight incubation at 37° C. All experimental conditions are run in duplicate. The data represent the average colony number.
The 18 μl aliquots were diluted to 10 μM TFPI with 445 μl RPMI 1640 without phenolred, 25 mM Hepes, pH 7.5 (RPMI) and assayed at a final concentration of 5 μM in 200 μl reactions containing 3000 CFU E. coli in 40 μl PBS, 10% non-coagulated blood, and adjusted to the final volume with RPMI. Negative controls were 10% blood in RPMI, TFPI at 5 μM and cathepsin G at 400 nM. Anti-coagulant free blood was freshly drawn and added to the reaction as the last component. The samples were manipulated as described above.
Peptides were designed to test for bacterial killing activity localized in the C-terminal domain of TFPI. Activity was measured against Gram negative (E coli O18:K1:H7. ATCC 700973) bacteria in the presence of 10% blood as described above. Controls were RPMI with 10% blood and 100 nM Tifacogin. The biological activity was determined from the reduction of bacterial colonies, as above.
The three peptides #1, #2, & #3 were diluted in H2O to 10 fold their final assay concentration and incubated with bacteria for 4 hours, at the final concentrations of 3 μM, 300 nM 100 nM and 10 nM. E. coli was used at 3000 CFU/200 μl. Surviving colony numbers were determined as described in Example 1. […] Full-length TFPI has no activity against Gram negative bacteria in these assays at the concentrations tested.
Time-dependency: Peptides were incubated with 3000 CFU E. coli O18:K1:H7 at the indicated final concentrations in the presence of 10% blood in three parallel 200 μl reactions as described above. RPMI with 10% blood was used as negative control. After incubation for 1, 3, or 5 hours samples were assayed for the effect on bacterial survival by plating serial dilutions onto agar plates. […] The effect of peptides on bacterial survival increases over the time-span studied.
In these experiments, variable concentrations of E. coli O18:K1:H7 (3×10^3, 3×10^4 or 3×10^5 CFU/200 μl) were challenged with either 3 μM or 100 nM peptide #3 in RPMI/10% blood, and incubated for 3 or 5 hours before dilution and plating. Briefly, the bacteria were diluted to the indicated CFU in 40 μl PBS, the reactions assembled at a final volume of 200 μl as above, and incubated at 37° C. Serial dilutions of the reactions were plated and the colony number determined after overnight incubation. […] At 5 hours no effect on the high CFU culture was discernable, indicating a titration of the killing activity and the high CFU culture exceeding the capacity.

[2] = test system: E. coli O7:K1(L):NM (ATCC 23503); assay: Bacterial killing assay with normal human serum, additional strain; details: Table 3, peptide 3 μM, NHS control 5.3
Experimental: Peptide #3 was tested for activity at 3 μM on additional strains of E. coli using normal human serum as a control.

E. coli O18:K1:H7 [3] = assay: Bacterial killing assay in serum or plasma (complement dependence)
E. coli O18:K1:H7 [4] = assay: Bacterial killing assay without blood (growth medium); details: Table 4; no blood, peptide 3 μM; growth medium 6.2
Experimental: Peptides #1, #3 and #4 were tested for their activity without blood on E. coli O18:K1:H7. The peptides were assayed at 3 μM. The same blood and TFPI controls were included as in Experiment I.

GFIQRISKGGLIKTKRKRKKQRVKIAY (homo sapiens) [Peptide #3, TFPI aas 242-268]
activity against O18ac:K1:H7 E. coli strain in blood (E. coli O18:K1:H7 [1]; 10% blood, 4 hours, concentrations tested 10 nM to 3 μM, peptide #5 compared to peptide #3): active | CFU (E. coli O18:K1:H7 [1]; Table 1, peptide 300 nM, 10% blood, 3000 CFU/200 μl, 4 hours, blood control 5.1): 2.2 | CFU (E. coli O18:K1:H7 [1]; Table 2, peptide 10 nM, 10% blood, blood control 3.5): 2.6 | CFU (E. coli O18:K1:H7 [1]; Table 2, peptide 100 nM, 10% blood, blood control 3.5): 1.2 | CFU 1 hour (E. coli O18:K1:H7 [1]; 300 nM, 10% blood): 3.3 | CFU 3 hours (E. coli O18:K1:H7 [1]; 300 nM, 10% blood): 1.2 | CFU 1 hour (E. coli O18:K1:H7 [1]; 3 μM, 10% blood): 3.2 | CFU 3 hours (E. coli O18:K1:H7 [1]; 3 μM, 10% blood): 0.2 | CFU 5 hours (E. coli O18:K1:H7 [1]; 3000 bacteria, 100 nM, blood alone 3.4): 1.2 | CFU 3 hour (E. coli O18:K1:H7 [1]; 3000 bacteria, 100 nM, blood alone 3.9): 2.3 | CFU 3 hour (E. coli O18:K1:H7 [1]; 30,000 bacteria, 100 nM, blood alone 5.1): 1.5 | CFU 5 hours (E. coli O18:K1:H7 [1]; 30,000 bacteria, 100 nM, blood alone 6.3): 4.1 | CFU 3 hour (E. coli O18:K1:H7 [1]; 30,000 bacteria, 3 μM, blood alone 5.1): 1.1 | CFU 5 hours (E. coli O18:K1:H7 [1]; 30,000 bacteria, 3 μM, blood alone 6.3): 3.6 | CFU 3 hour (E. coli O18:K1:H7 [1]; 300,000 bacteria, 100 nM, blood alone 7.7): 7.5 | CFU 5 hours (E. coli O18:K1:H7 [1]; 300,000 bacteria, 100 nM, blood alone 8.4): 9.1 | CFU 3 hour (E. coli O18:K1:H7 [1]; 300,000 bacteria, 3 μM, blood alone 7.7): 5.8 | CFU 5 hours (E. coli O18:K1:H7 [1]; 300,000 bacteria, 3 μM, blood alone 8.4): 9.1 | CFU (E. coli O18:K1:H7 [1]; Table 7, blood at 20 μl, digested rTFPI 5 μM, peptide #3 in parallel, control 4.1): 1.5 | CFU (Range) (E. coli O18:K1:H7 [1]; peptide 3 μm, Heparin, 3 U/mL): 5.5 | CFU (Range) (E. coli O18:K1:H7 [1]; peptide 3 μm, LMW heparin, 0.3 U/mL): 4.2 (4.1-4.2) | CFU (Range) (E. coli O18:K1:H7 [1]; peptide 3 μm, LMW heparin, 3 U/mL): 5.2 (5.2-5.3) | bacterial killing activity with un-fractionated heparin (E. coli O18:K1:H7 [1]; peptide 3 μm, un-fractionated heparin at 0.3 U/ml, data not shown): partial loss of bacterial killing activity | CFU [2]: 2.9 | bacterial killing activity in CVF-treated serum (E. coli O18:K1:H7 [3]; FIG. 8C, 1 U/ml CVF): still preserved | bacterial killing activity in CVF-treated serum (E. coli O18:K1:H7 [3]; FIG. 8C, serum treated with 10 U/ml of CVF): lost | bacterial killing activity in serum (E. coli O18:K1:H7 [3]; FIG. 8C, untreated serum or serum incubated 30 minutes at room temperature without CVF): active | bacterial killing activity in serum (rank) (E. coli O18:K1:H7 [3]; FIG. 8D, peptides serially diluted to 300 nM, and 30 nM in serum): strongest effect | bacterial killing activity in C4-deficient serum (E. coli O18:K1:H7 [3]; FIG. 9, C4-deficient guinea pig serum): completely devoid of bacterial killing activity | bacterial killing activity in complement-depleted sera (E. coli O18:K1:H7 [3]; FIG. 9, serum depleted for C1q, C3, C6, C2, C9, or deficient for C4): loss | bacterial killing activity after add-back of complement factor (E. coli O18:K1:H7 [3]; FIGS. 9 C and D, purified C1 complex (2.34 μg) or factor C4 (6 μg) added back to the respective depleted/deficient serum): restored | CFU (E. coli O18:K1:H7 [3]; Table 7, serum at 40 μl, digested rTFPI 5 μM, peptide #3 in parallel, control 4.2): 1.2 | CFU (E. coli O18:K1:H7 [3]; Table 8, Serum + 5 mM MgC12, 10 mM EDTA, control 4.4): 4.2 | bacterial killing activity in chelated serum (E. coli O18:K1:H7 [3]; serum containing 10 mM EGTA and 5 mM MgCl2): no bacterial killing activity | CFU (Range) (E. coli O18:K1:H7 [4]): 6.2 (6.1-6.2)
